In publication PMC10999558, “Analyzing resistome in soil and Human gut: a study on the characterization and risk evaluation of antimicrobial peptide resistance” (Frontiers in Microbiology, 2024):

Columns and labels:
Type in all cases: cell-based, Escherichia coli
Conditions in all cases: MHB, 37°C, 24 h, triplicate
[1] = test system: E. coli JM109; test: MIC, broth microdilution, retransformed E. coli JM109
Procedure: (§1) Escherichia coli DH5α, E. coli BL21(DE3), and E. coli JM109 were utilized in this study.
(§2) The MICs were determined using the broth microdilution method in 96-well microtiter plates ([Wiegand et al., 2008]). In brief, a 1:100 dilution of the mid-exponential phase bacterial culture (OD600 = 0.5), consisting of 5 μL (1 × 10^5 CFU/mL), was introduced into polypropylene 96-well plates. These plates contained a two-fold dilution series of AMP in a total volume of 100 μL MHB per well. The incubation of the plates occurred at 37°C in a humidity chamber. The MIC was identified as the lowest concentration that hindered visible bacterial growth after 24 h of incubation. Each experiment was conducted in triplicate.
(§3) Before washing down the colonies, we randomly selected two clones from each plate containing distinct AMP. Colony PCRs were conducted using M13 primer pairs to validate the presence of inserts and determine their sizes. The selected colonies were then subjected to sequencing. The specific details are provided in Supplementary Table S2. Following that, plasmids were isolated using the Plasmid Midiprep Kit (Zomanbio, ZP103) following the manufacturer’s guidelines. After the plasmids were successfully reintroduced into E. coli JM109 and E. coli BL 21(DE3), the MICs of the transformed strains against the AMP used for selection were tested. This testing process was carried out in triplicate.
(§4) Following validation, the colonies displaying resistance underwent additional testing via MIC assessments for the remaining four AMPs that were not employed during the selection process. This experimental procedure was carried out in triplicate.

[2] = test system: E. coli BL21(DE3); test: MIC, broth microdilution, retransformed E. coli BL21(DE3)
Procedure: as §1, §2, §3, §4

[3] = test system: E. coli DH5α; test: MIC, broth microdilution, E. coli DH5α carrying pUC118 or resistance-conferring plasmids
Procedure: as §1, §2, §4

Iseganan [IB367] gave an MIC ([1]; colony pUC118-FCST1-JM109 (feces insert 1 selected against colistin)) of 8 µg/mL, an MIC ([1]; colony pUC118-FCST2-JM109 (feces insert 2 selected against colistin)) of 8 µg/mL and an MIC ([1]; colony pUC118-FGQ1-JM109 (feces insert 1 selected against melittin)) of 8 µg/mL. The MIC ([1]; colony pUC118-FGQ2-JM109 (feces insert 2 selected against melittin)) was 16 µg/mL, the MIC ([1]; colony pUC118-FIB1-JM109 (feces insert 1 selected against iseganan)) was 16 µg/mL and the MIC ([1]; colony pUC118-FIB2-JM109 (feces insert 2 selected against iseganan)) was 32 µg/mL. It also gave an MIC ([1]; colony pUC118-FPB1-JM109 (feces insert 1 selected against polymyxin B)) of 32 µg/mL, an MIC ([1]; colony pUC118-FPB2-JM109 (feces insert 2 selected against polymyxin B)) of 8 µg/mL and an MIC ([1]; colony pUC118-FSA1-JM109 (feces insert 1 selected against cathelicidin-DM)) of 8 µg/mL. For the same substance, the MIC ([1]; colony pUC118-FSA2-JM109 (feces insert 2 selected against cathelicidin-DM)) was 8 µg/mL, the MIC ([1]; colony pUC118-JM109 (control, no insert)) was 8 µg/mL and the MIC ([1]; colony pUC118-SCST1-JM109 (soil insert 1 selected against colistin)) was 8 µg/mL. It also gave an MIC ([1]; colony pUC118-SCST2-JM109 (soil insert 2 selected against colistin)) of 8 µg/mL, an MIC ([1]; colony pUC118-SGQ1-JM109 (soil insert 1 selected against melittin)) of 8 µg/mL and an MIC ([1]; colony pUC118-SGQ2-JM109 (soil insert 2 selected against melittin)) of 8 µg/mL. It also gave an MIC ([1]; colony pUC118-SIB1-JM109 (soil insert 1 selected against iseganan)) of 32 µg/mL, an MIC ([1]; colony pUC118-SIB2-JM109 (soil insert 2 selected against iseganan)) of 16 µg/mL and an MIC ([1]; colony pUC118-SPB1-JM109 (soil insert 1 selected against polymyxin B)) of 8 µg/mL. The MIC ([1]; colony pUC118-SPB2-JM109 (soil insert 2 selected against polymyxin B)) was 8 µg/mL, the MIC ([1]; colony pUC118-SSA1-JM109 (soil insert 1 selected against cathelicidin-DM)) was 16 µg/mL and the MIC ([1]; colony pUC118-SSA2-JM109 (soil insert 2 selected against cathelicidin-DM)) was 16 µg/mL. It also gave an MIC ([2]; colony pUC118-BL21(DE3) (control, no insert)) of 16 µg/mL, an MIC ([2]; colony pUC118-FCST1-BL21(DE3) (feces insert 1 selected against colistin)) of 16 µg/mL and an MIC ([2]; colony pUC118-FCST2-BL21(DE3) (feces insert 2 selected against colistin)) of 16 µg/mL. The MIC ([2]; colony pUC118-FGQ1-BL21(DE3) (feces insert 1 selected against melittin)) was 16 µg/mL, the MIC ([2]; colony pUC118-FGQ2- BL21(DE3) (feces insert 2 selected against melittin)) was 32 µg/mL and the MIC ([2]; colony pUC118-FIB1-BL21(DE3) (feces insert 1 selected against iseganan)) was 32 µg/mL. For the same substance, the MIC ([2]; colony pUC118-FIB2-BL21(DE3) (feces insert 2 selected against iseganan)) was 32 µg/mL, the MIC ([2]; colony pUC118-FPB1-BL21(DE3) (feces insert 1 selected against polymyxin B)) was 32 µg/mL and the MIC ([2]; colony pUC118-FPB2-BL21(DE3) (feces insert 2 selected against polymyxin B)) was 16 µg/mL. The MIC ([2]; colony pUC118-FSA1-BL21(DE3) (feces insert 1 selected against cathelicidin-DM)) was 16 µg/mL, the MIC ([2]; colony pUC118-FSA2-BL21(DE3) (feces insert 2 selected against cathelicidin-DM)) was 16 µg/mL and the MIC ([2]; colony pUC118-SCST1-BL21(DE3) (soil insert 1 selected against colistin)) was 16 µg/mL. It also gave an MIC ([2]; colony pUC118-SCST2-BL21(DE3) (soil insert 2 selected against colistin)) of 16 µg/mL, an MIC ([2]; colony pUC118-SGQ1-BL21(DE3) (soil insert 1 selected against melittin)) of 16 µg/mL and an MIC ([2]; colony pUC118-SGQ2-BL21(DE3) (soil insert 2 selected against melittin)) of 16 µg/mL. It also gave an MIC ([2]; colony pUC118-SIB1-BL21(DE3) (soil insert 1 selected against iseganan)) of 32 µg/mL, an MIC ([2]; colony pUC118-SIB2-BL21(DE3) (soil insert 2 selected against iseganan)) of 32 µg/mL and an MIC ([2]; colony pUC118-SPB1-BL21(DE3) (soil insert 1 selected against polymyxin B)) of 16 µg/mL. It also gave an MIC ([2]; colony pUC118-SPB2-BL21(DE3) (soil insert 2 selected against polymyxin B)) of 16 µg/mL, an MIC ([2]; colony pUC118-SSA1-BL21(DE3) (soil insert 1 selected against cathelicidin-DM)) of 32 µg/mL and an MIC ([2]; colony pUC118-SSA2-BL21(DE3) (soil insert 2 selected against cathelicidin-DM)) of 16 µg/mL. It also gave an MIC ([3]; E. coli DH5α containing pUC118 plasmids) of 16 µg/mL, an MIC ([3]; colony pUC118-DH5α (control, no insert)) of 16 µg/mL and an MIC ([3]; colony pUC118-FCST1-DH5α (feces insert 1 selected against colistin)) of 16 µg/mL. It also gave an MIC ([3]; colony pUC118-FCST2-DH5α (feces insert 2 selected against colistin)) of 16 µg/mL, an MIC ([3]; colony pUC118-FGQ1-DH5α (feces insert 1 selected against melittin)) of 16 µg/mL and an MIC ([3]; colony pUC118-FGQ2-DH5α (feces insert 2 selected against melittin)) of 32 µg/mL. The MIC ([3]; colony pUC118-FIB1-DH5α (feces insert 1 selected against iseganan)) was 32 µg/mL, the MIC ([3]; colony pUC118-FIB2-DH5α (feces insert 2 selected against iseganan)) was 32 µg/mL and the MIC ([3]; colony pUC118-FPB1-DH5α (feces insert 1 selected against polymyxin B)) was 32 µg/mL. The MIC ([3]; colony pUC118-FPB2-DH5α (feces insert 2 selected against polymyxin B)) was 16 µg/mL, the MIC ([3]; colony pUC118-FSA1-DH5α (feces insert 1 selected against cathelicidin-DM)) was 16 µg/mL and the MIC ([3]; colony pUC118-FSA2-DH5α (feces insert 2 selected against cathelicidin-DM)) was 16 µg/mL. For the same substance, the MIC ([3]; colony pUC118-SCST1-DH5α (soil insert 1 selected against colistin)) was 16 µg/mL, the MIC ([3]; colony pUC118-SCST2-DH5α (soil insert 2 selected against colistin)) was 16 µg/mL and the MIC ([3]; colony pUC118-SGQ1-DH5α (soil insert 1 selected against melittin)) was 16 µg/mL. It also gave an MIC ([3]; colony pUC118-SGQ2-DH5α (soil insert 2 selected against melittin)) of 16 µg/mL, an MIC ([3]; colony pUC118-SIB1-DH5α (soil insert 1 selected against iseganan)) of 32 µg/mL and an MIC ([3]; colony pUC118-SIB2-DH5α (soil insert 2 selected against iseganan)) of 32 µg/mL. It also gave an MIC ([3]; colony pUC118-SPB1-DH5α (soil insert 1 selected against polymyxin B)) of 16 µg/mL, an MIC ([3]; colony pUC118-SPB2-DH5α (soil insert 2 selected against polymyxin B)) of 16 µg/mL and an MIC ([3]; colony pUC118-SSA1-DH5α (soil insert 1 selected against cathelicidin-DM)) of 32 µg/mL. The MIC ([3]; colony pUC118-SSA2-DH5α (soil insert 2 selected against cathelicidin-DM)) was 32 µg/mL.
